Target: T1, Mitogen-activated protein kinase kinase kinase 5 (Homo sapiens, UniProt Q99683)
T1 sequence (Q99683 whole entry): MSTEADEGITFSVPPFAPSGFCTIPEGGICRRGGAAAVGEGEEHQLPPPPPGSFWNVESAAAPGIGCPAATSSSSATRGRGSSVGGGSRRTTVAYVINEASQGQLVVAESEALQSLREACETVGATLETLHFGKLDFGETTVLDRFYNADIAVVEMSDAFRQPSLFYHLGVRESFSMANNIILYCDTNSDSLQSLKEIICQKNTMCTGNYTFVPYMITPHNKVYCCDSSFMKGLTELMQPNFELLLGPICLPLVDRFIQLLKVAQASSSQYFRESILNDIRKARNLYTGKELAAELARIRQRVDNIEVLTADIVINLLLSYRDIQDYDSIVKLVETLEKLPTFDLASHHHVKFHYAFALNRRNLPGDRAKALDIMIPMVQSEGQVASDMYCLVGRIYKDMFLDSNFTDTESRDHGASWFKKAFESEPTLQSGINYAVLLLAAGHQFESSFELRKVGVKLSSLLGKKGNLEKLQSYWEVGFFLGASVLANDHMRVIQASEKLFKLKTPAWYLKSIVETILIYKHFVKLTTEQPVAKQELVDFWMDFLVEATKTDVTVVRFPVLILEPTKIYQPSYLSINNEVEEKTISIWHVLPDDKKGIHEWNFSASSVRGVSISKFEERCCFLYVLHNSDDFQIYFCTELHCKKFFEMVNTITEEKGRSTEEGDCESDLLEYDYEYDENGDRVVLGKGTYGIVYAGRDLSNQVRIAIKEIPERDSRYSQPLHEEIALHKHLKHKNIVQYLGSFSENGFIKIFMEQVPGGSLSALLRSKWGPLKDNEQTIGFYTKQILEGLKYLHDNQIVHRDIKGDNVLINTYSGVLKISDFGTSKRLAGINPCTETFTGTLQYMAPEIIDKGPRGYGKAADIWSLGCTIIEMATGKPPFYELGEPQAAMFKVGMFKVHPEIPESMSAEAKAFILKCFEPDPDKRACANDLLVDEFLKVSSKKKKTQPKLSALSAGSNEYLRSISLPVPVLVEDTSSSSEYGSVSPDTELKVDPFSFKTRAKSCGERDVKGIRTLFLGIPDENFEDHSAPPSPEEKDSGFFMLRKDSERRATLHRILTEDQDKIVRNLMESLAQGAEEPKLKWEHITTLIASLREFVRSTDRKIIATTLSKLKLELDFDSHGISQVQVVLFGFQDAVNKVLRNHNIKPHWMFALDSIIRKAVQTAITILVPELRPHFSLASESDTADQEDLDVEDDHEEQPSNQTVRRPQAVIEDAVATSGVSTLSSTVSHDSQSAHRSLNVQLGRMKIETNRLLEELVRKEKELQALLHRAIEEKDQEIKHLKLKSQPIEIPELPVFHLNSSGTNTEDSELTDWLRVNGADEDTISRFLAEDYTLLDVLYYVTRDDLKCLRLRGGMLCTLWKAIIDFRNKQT
Assay: HTRF KinEASE Assay: ASK1 was purchased from Thermofisher (Catalogue #PV4011), ATP was purchased from Sigma (Catalogue #A7699), HTRF® KinEASE™ Assay System was obtained from Cisbio (Bedford, Mass.). ½ Area plate was purchased from Perkin Elmer (Catalogue ##6005560). HTRF® KinEASE™-STK is a generic method for measuring serine/threonine kinase activities using a time-resolved fluorescence resonance energy transfer (TR-FRET) immunoassay. The IC50 value for each compound was determined in the presence of compound (various concentration from 0 to 10 μM) and a fixed amount of ATP and peptide substrates. The test compound, 1 μM STK3 peptide substrate, and 5 μM of ASK1 kinase are incubated with kinase reaction buffer containing 50 mM HEPES Ph 7.5, 0.01% BRIJ-35, 10 mM MgCl2, and 1 mM EGTA for 30 minutes. 100 μM ATP is added to start kinase reaction and incubated for 3 hours. The STK3-antibody labeled with Eu3+-Cryptate and 125 nM streptavidin-XL665 are mixed in a single addition with stop reagents provided by the Cisbio kit used to stop the kinase reaction. Fluorescence is detected using an Envision Multilabeled 2014 reader from PerkinElmer. The Fluorescence is measured at 615 nm (Cryptate) and 665 nm (XL665) and a ratio of 665 nm/615 nm is calculated for each well. The resulting TR-FRET is proportional to the phosphorylation level. Staurosporine was used as the positive control. IC50 was determined by Xlfit 5.3.
Assay type: single protein

Row | Structure (SMILES) | IC50 [µM]
1 | CCOC(=O)N1CCc2cc(OC)c(C(=O)Nc3cccc(-c4nnc5n4[C@H](C)CC5)n3)cc2C1 | < 0.00125
2 | CCOC(=O)N1CCc2cc(OC)c(C(=O)Nc3cccc(-c4nnc5n4C(C)(C)CC5)n3)cc2C1 | < 0.00125
3 | CCOC(=O)N1CCc2cc(OC)c(C(=O)Nc3cccc(-c4nnc5n4CCCC5)n3)cc2C1 | 0.01 to 0.1

Next, values leading:

Row | IC50 [µM] | Structure (SMILES)
4 | > 1 | CCOC(=O)N1CCc2cc(F)c(C(=O)Nc3cccc(-c4nnc5n4CCCC5)n3)cc2C1
5 | > 1 | CCOC(=O)N1CCc2cnc(C(=O)Nc3cccc(-c4nnc5n4CCCC5)n3)cc2C1
